Assays:
[1] = system: CD34+ cells from cord blood; assay: HSC Expansion Culture, 14 to 64 days (Example 42); assay type: cell-based, human
Protocol: Cryopreserved CD34+ cells from cord blood were purchased from STEMCELL Technologies. Primary human CD34+ cells were isolated by the supplier from cord blood samples using positive immunomagnetic separation techniques. Cells were thawed, gradually brought to room temperature, then washed. Cells were primed for expansion with overnight culture in StemSpan SFEM I with 100 ng/mL each of FLT3L, TPO, SCF, and IL-6. Eighteen-to-twenty-four hours later (day 1), cells were counted and immunophenotyped (flow cytometry on an Invitrogen Attune N×T cytometer). Cells were then placed into “HSC Expansion Culture,” described here, or placed directly into Differentiation Culture with STEMCELL's Myeloid StemSpan Myeloid Expansion Supplement (Granulocyte). Media for expanding CD34+ cell numbers was prepared in StemSpan SFEM II (STEMCELL) and added to duplicate 25 cm^2 flasks (4 ml total volume per flask). Expansion Culture conditions also included an antibiotic solution containing penicillin, streptomycin, and amphotericin B to avoid contamination. Additional media components and concentrations used for the conditions tested were as described above in Table 9. All incubations for Expansion Culture took place at 3% oxygen (controlled by nitrogen) and 5% CO2. During Expansion Culture, samples were taken for cell counting and phenotyping. […]

[2] = system: CD34+ cells from cord blood; assay: HSC Expansion Culture, 14 and 21 days (Example 41); assay type: cell-based, human
Protocol: CD34+ cells from cord blood were purchased from STEMCELL Technologies.
Primary human CD34+ cells were isolated by the supplier from cord blood samples using positive immunomagnetic separation techniques. Cells from two separate samples of cord blood were thawed, gradually brought to room temperature, then washed.
For both samples, cells were primed with an overnight culture in StemSpan with 100 ng/ml each of FLT3L, TPO, SCF, and IL-6. Eighteen hours later (day 1), cells were counted and immunophenotyped (flow cytometry on an Invitrogen Attune N×T cytometer).
The remainder of cells from both samples were placed into “HSC Expansion Culture” for either 14 days (“14-day expansion”) or 21 days (“21-day expansion”). Numbers of cells placed into HSC Expansion Culture were quantified for “Fold Expansion” calculations described below. […]
During Expansion Culture, portions of cells were passaged to one or more larger flasks (75 cm^2 or 225 cm^2) if density of cells was greater than ≥1e5 cells/ml. […] Numbers of cells seeded were recorded for “Fold Expansion” calculations, described below.
Following 21 days in Expansion Culture, a sample was taken from the 21-day expansion flask for counting and analysis of phenotypes (flow cytometry on an Invitrogen Attune N×T cytometer). […] CD34 purity was verified by flow cytometry and counts were recorded for calculation of Per-Assayed-CD34+ Cell Output, described below. […]

Structure (SMILES): CC(C)(C)C(=O)Nc1ccc2c(c1)C(O)c1ccccc1-2 (stereo not shown) [Compound 1.010]
- fold expansion in CD34+ cell numbers ([1]; +Formula I conditions (Compound 1.010 8 μM), day 14): about 270 fold
- fold expansion in CD34+ cell numbers ([1]; +Formula I conditions, day 64): about 86,000 fold
- fold expansion of CD34+ cells ([2]; +Formula I Condition (Compound 1.010 8 μM), 14 days): 35 fold
- fold expansion of CD34+ cells ([2]; +Formula I Condition, 21-day expansion): 245 fold
